This is an account of results in patent publication US8691768B2, “Methods of determining delta opioid receptor subtypes” (The Regents of the University of California, priority 2008, dated 2014).

The subject of assay [1] is Lewis rats, ventral tegmental area (VTA). Briefly: Ethanol self-administration (two-bottle continuous access) after microinjection into the VTA. Type of assay: in vivo. Here is the method: Male Lewis rats (Harlan Laboratories, Indianapolis, Ind.) weighing between 275-300 g were individually housed in a temperature controlled colony room (21° C.) maintained on a reversed light/dark cycle 12L:12D cycle (lights off at 10 A.M., lights on at 10 P.M.). All experiments were performed during the dark portion of the cycle. Food and water was provided ad libitum.
Ethanol was administered via a two-bottle continuous access, free-choice paradigm in which one bottle contained 10% ETOH (v/v) and the other bottle contained water. Sucrose was never added to the ethanol solution. The amount of ETOH and water consumed was measured at the same time daily (10 A.M.). […] Animals were weighed daily. Bottles were identical and their positions were counterbalanced and rotated daily. Change in drinking was calculated by subtracting the amount of drinking (mg/kg) on the day following treatment from the amount of drinking (mg/kg) on the day prior to treatment.
Animals were anesthetized and maintained on isoflurane (0.5 l/min) as needed for the duration of surgery. Animals were placed in a stereotaxic frame and were implanted with bilateral 26-gauge stainless steel chronic guide cannulas (Plastincs One, Roanoke, Va.) into the VTA (AP, −5.8; ML, ±0.5; DV, −7.0) based on the atlas of Paxinos and Watson (1997, The rat brain in sterotaxic coordinates, compact, Ed 3. San Diego: Academic). Cannulas were secured to the skull with dental cement. At the end of the surgical procedure, animals were treated with penicillin and topical antibiotics. A stainless steel dummy cannula (Plastics One) was inserted into each guide cannula and remained in place when the guide cannulas were not in use. Animals were allowed a 1 week recovery period before behavioral testing.
Each injection was made using a 1 μl syringe (Hamilton, Reno, Nev.) attached to 20 cm of PE 50 tubing connected to a 33-gauge injection cannula (Plastics One). Microinjections of 0.5 μl volumes were given at a rate of 0.5 μl/min using a syringe pump (kd Scientific, Hollister, Mass.) into each side of the VTA, except for bicuculline injections, where 0.25 μl was injected per side. Injection cannulas extended 2 mm beyond guide cannulas and were left in place for 1 min following microinjections to minimize the backflow of drug solution. In addition to drug microinjections, physiological saline microinjections were made in every rat to measure the effect of the injection manipulation alone on drinking Drug injections were randomized and counterbalanced. Change in drinking due to drug microinjections was calculated by comparing both the previous day's consumption (“baseline”) and to saline injection. At the conclusion of the experiment, animals were anesthetized with pentobarbital and perfused intracardially through the ascending aorta with 0.1 M phosphate buffered saline followed by 10% formalin. Brains were sectioned coronally at 50 μm, mounted and stained with cresyl violet. Only animals with confirmed injection sites within the VTA were included. No behavioral differences were observed between animals with anterior compared with posterior cannula placements.
For behavioral experiments, DPDPE (10mM; Sigma, St. Louis, Mo.), TIPP-ψ (5 μM; NIDA, Bethesda, Md.), Bicuculline (1 mM; Sigma), DAMGO (0.2 mM; Sigma), and CTOP (10 mM; Tocris, Ellisville, Mo.) were prepared in physiological saline for microinjection into the VTA. For electrophysiology, all drugs were applied by bath perfusion. Stock solutions were made and diluted in artificial CSF immediately before application. All chemicals were obtained from Sigma or Tocris except TIPP-ψ, which was acquired from NIDA.
Results are presented as mean±SEM where appropriate. For behavioral data, drinking was analyzed using 24 h time points. Raw drinking data were used for paired Student's t test comparisons probing drug effects on drinking compared with baseline or saline injections, a more conservative comparison than analyzing normalized data. […]

Assay [2] relates to GABAA IPSCs in VTA neurons. The assay can be described thus: Slice electrophysiology, whole-cell patch-clamp of GABAA IPSCs in VTA neurons. Type of assay: cell-based, Lewis rats. On the technique in general: In patch-clamp work, channel activity is measured electrically.
The subject of another assay is Lewis rats. Briefly: Cocaine self administration after VTA microinjection. To be noted: 10 mM into VTA, compared to saline. In kind it is in vivo. Here is the method: Lewis rats (Charles River, Mass.) weighing 275-350 g at the beginning of behavioral testing are housed and treated as previously described. Prior to cocaine self administration, rats are anesthetized with a ketamine-xylazine-acepromazine mixture and implanted with a chronic jugular catheter using methods previously described (Caine & Koob, 1993). Following surgery, rats receive daily administration of the antibiotic ticarcillin (20 mg/day at 100 mg/ml; GlaxoSmithKline, Research Triangle Park, NC). Catheter patency is tested by infusion of the fast-acting barbiturate Brevital (methohexital sodium; 1 mg/0.1 ml; Lilly, Indianapolis, Ind.). Self-administration training is conducted in operant-conditioning chambers enclosed within sound-attenuating cabinets (MED Associates, St. Albans, Vt.). […] Presses on the active lever result in either a 120 microL infusion of cocaine over a 4-s period via a Razel pump (Razel Scientific Instruments, Fairfax, Vt.) or delivery of a 45-mg food pellet (Bio-Serv, Frenchtown, N.J.). […] Presses on the active lever result in a 20-s time-out, signaled by illumination of the stimulus light and retraction of the active lever. […] Following training, rats are microinjected with either 10 mM DPDPE or saline directly into the VTA prior to cocaine self-administration and active lever presses are recorded.

Where [3] appears, read: 1 μM, VTA neurons from drinking animals.

On to “(2-D-penicillamine, 5-D-penicillamine)-enkephalin [DPDPE]”, for which the “drinking (EtOH)” value in assay [1] (10 mM into VTA, compared with control saline microinjections in the same rats) was “also evident”; in assay [1] (10 mM into VTA, high drinkers) it was “only at trend level”; in assay [1] (10 mM into VTA, low drinkers) it was “particularly prominent”; in assay [1] (10 mM microinjected into VTA, all animals, compared with the day before treatment) it was “decreased drinking”. Further, the “relation between baseline EtOH consumption and % baseline drinking following administration” value in assay [1] (10 mM into VTA, n=15) was “inverse correlation”. The “relation between DPDPE induced inhibition of evoked and spontaneous IPSCs and amount of EtOH consumed” value in assay [2] is on record as “inverse correlation”. Besides, in assay [2] (setting [3]), the “evoked IPSCs” value is listed as “significantly inhibited”. Moreover, the “spontaneous IPSCs” value in assay [2] (setting [3]) is reported as “significantly inhibited”. The “GABA release onto VTA neurons” value in assay [2] (abstinent animals, 3 and 7 days off bottles) is recorded as “maintained its ability to inhibit GABA release”. Besides, the “GABAA IPSCs” value in assay [2] (age-matched, ethanol-naive, control animals) is recorded as “no effect”. For the same substance, the saturating dose in assay [2] (dose-response in the animal groups, in presence of 1 μM CTAP) was determined as 1 µM. Moreover, the “GABA release in the VTA” value in assay [2] (low drinkers) is given as “Decreases GABA Release”. Besides, the “cocaine self administration (active lever presses)” value with Lewis rats is “decrease cocaine self administration”.
